# In patent US20070275025A1, “Combustible Mosquito Coil or Stick” (RECKITT BENCKISER (AUSTRALIA) PTY LIMITED, priority 2003, published 2007):
# Like-named read-outs stand apart in the source and are kept apart here.
# Key:
# [1] = cited from earlier work
# Aedes aegypti = test: Burning coil trial in ventilated 20 cubic metre test chamber with human subject: landing/bite inhibition, knockdown, 24 hour mortality; assay type: in vivo; settings: for % KD (15 mins) / 24 hour % mortality (15 mins exposure): 15 minutes exposure; for 24 hour % mortality (15 mins exposure): dead after 24 hours; for % bite inhibition / % landing inhibition: assessed 10 to 15 minutes exposure
# Method: A combustible coil according to the present invention containing bifenthrin was compared with coils containing other pyrethroid active ingredients (d-allethrin, d-phenothrin, imiprothrin, permethrin, cypermethrin, bioresmethrin, deltamethrin) as indicated in Table 2. All coils contained active ingredients in an amount that rendered them similar in cost to the current leading d-allethrin coils. The range of actives covered both knockdown and residual pyrethroids. The trial was carried out against the Dengue mosquito (Aedes aegypti). The methodology employed is as follows:
# The study was conducted in a ventilated test chamber (20 cubic metres) at a temperature of between 27° C. and 28.7° C. The relative humidity was ambient and ranged from 51% to 58%.
# Mixed sex adult 6 to 10 day old Dengue mosquitoes (Aedes aegypti) were used in this study. There were 50 female mosquitoes released per replicate and a variable number of male mosquitoes. The mosquitoes were collected and immobilised. Male and female mosquitoes were added to a container until 50 female mosquitoes were obtained. Because only female mosquitoes bite human subjects, the number of males present in each trial was irrelevant. The mosquitoes were allowed to recover for at least one hour before being used for testing.
# A positive air flow of 0.4 metres/second was generated into the chamber and air was passively vented from the chamber.
# Coil treatments were placed on the floor in the test chamber, and were allowed to burn for 5 minutes before all mosquitoes were brought into the chamber and released. The coils continued to operate during the assessments and were stopped at the completion of the test period.
# Starting from 10 minutes after the mosquitoes were released, an assessment was made by one human subject of the mosquito landings and bites over a 5 minute period. Whilst seated in the chamber, the subject recorded the total number of females that initiated a bite on the subject's legs, as well as the number of females that landed without initiating biting. Mosquitoes were permitted to probe the subject but not permitted to bite the subject, and were chased away prior to this occurring.
# Immediately after the 5 minute assessment period, the number of knocked down mosquitoes was recorded. All the mosquitoes were collected and removed from the chamber. After 24 hours, the number of dead mosquitoes was recorded. The same human subject was used for all assessments.
# The results shown in the Table 2 are the means of four trials.
# Percentage landing inhibition refers to the number of mosquitoes which landed on the subject in the absence of any treatment (untreated control), minus the number of mosquitoes which landed on the subject in the presence of a coil treatment, divided by the number of mosquitoes which landed on the subject in the absence of any treatment, expressed as a percentage. Landing inhibition was assessed from 10 to 15 minutes exposure of the Aedes aegypti mosquitoes to each burning coil treatment.
# Percentage bite inhibition refers to the number of mosquitoes which probed or attempted to bite the subject in the absence of any treatment (untreated control), minus the number of mosquitoes which attempted to bite the subject in the presence of a coil treatment, divided by the number of mosquitoes which attempted to bite the subject in the absence of any treatment, expressed as a percentage. It will be appreciated that, as mosquitoes must first land before attempting to bite, of necessity, percentage bite inhibition will always be lower than or equal to percentage landing inhibition. Bite inhibition was assessed from 10 to 15 minutes exposure of the Aedes aegypti mosquitoes to each burning coil treatment.
# Knockdown refers to mosquitoes present on the floor of the chamber after the 15 minute trial, which were either dead, moribund, or incapacitated (i.e. unable to fly off the floor of the chamber). […]
# Culex quinquefasciatus = test: Burning coil trial with mosquitoes confined in a small cage in the chamber, subject's arm inserted: landing/bite inhibition, knockdown, 24 hour mortality; assay type: in vivo; settings: caged Culex quinquefasciatus; for % KD (15 mins) / % bite inhibition / % landing inhibition: 15 minutes exposure
# Method: The trial detailed in Example 2 was repeated against the much more difficult to kill Culex quinquefasciatus mosquitoes. The methodology used was similar to that employed for Aedes aegypti described above, with the following variations.
# One hundred female and a variable number of male Cx. quinquefasciatus were confined in a small cage which was placed in the chamber 5 minutes after the coil treatment had been ignited. For this species of mosquito, the subject's arm was inserted into the cage for determinations of landing and biting rates. The reasons for these changes in methodology compared to those used for Ae. aegypti was because Cx. quinquefasciatus are much weaker biters. This meant that satisfactory biting rates could only be achieved by confining them to a small volume.
# Percentage landing inhibition, percentage bite inhibition, percentage knockdown and percentage mortality are as defined above. […] As Cx. quinquefasciatus is a more robust mosquito species the lower level of mortality after 15 minutes exposure when compared with the Ae. aegypti mosquitoes was expected.
# [2] = Comparison of physical properties of pyrethroids (The Pesticide Manual); assay type: physicochemical; settings: ratio of the cited vapour pressures
# From the text: The present inventors compared some physical properties of bifenthrin with those of other residual pyrethroids.
# [3] = burning coil with 0.035% imiprothrin
# [4] = burning coil with 0.02% bifenthrin
# [5] = burning coil with 0.05% bifenthrin
# [6] = burning coil with 0.10% bifenthrin
# [7] = burning coil with 0.056% bioresmethrin
# [8] = burning coil with 0.3% cypermethrin
# [9] = burning coil with 0.07% deltamethrin
# [10] = burning coil with 0.705% permethrin
# [11] = burning coil with 0.25% d-allethrin
# [12] = burning coil with 0.228% d-phenothrin
structure (smiles),measurement,setting,value
"C#CCN1CC(=O)N(COC(=O)[C@@H]2C(C=C(C)C)C2(C)C)C1=O (mixture of isomers) [Imiprothrin, imiprothrin]",Vapour Pressure,[1]; 25° C.,0.0018 mPa
same,% KD (15 mins),Aedes aegypti; [3],1%
same,24 hour % mortality (15 mins exposure),Aedes aegypti; [3],7%
same,% bite inhibition,Aedes aegypti; [3],34%
same,% landing inhibition,Aedes aegypti; [3],34%
"Cc1c(COC(=O)[C@H]2[C@@H](/C=C(\Cl)C(F)(F)F)C2(C)C)cccc1-c1ccccc1 (racemic) [Bifenthrin, 2-methylbiphenyl-3-ylmethyl (Z)-(1RS,3RS)-3-(2-chloro-3,3,3-trifluoroprop-1-enyl)-2,2-dimethylcyclopropanecarboxylate]",Vapour Pressure,[1]; 25° C.,0.024 mPa
same,24 hour % mortality (15 mins exposure),Culex quinquefasciatus; [4],9%
same,% KD (15 mins),Culex quinquefasciatus; [4],1%
same,% bite inhibition,Culex quinquefasciatus; [4],96%
same,% landing inhibition,Culex quinquefasciatus; [4],86%
same,24 hour % mortality (15 mins exposure),Culex quinquefasciatus; [5],27%
same,% KD (15 mins),Culex quinquefasciatus; [5],3%
same,% bite inhibition,Culex quinquefasciatus; [5],95%
same,% landing inhibition,Culex quinquefasciatus; [5],85%
same,24 hour % mortality (15 mins exposure),Culex quinquefasciatus; [6],39%
same,% KD (15 mins),Culex quinquefasciatus; [6],4%
same,% bite inhibition,Culex quinquefasciatus; [6],99%
same,% landing inhibition,Culex quinquefasciatus; [6],86%
same,% KD (15 mins),Aedes aegypti; [4],15%
same,24 hour % mortality (15 mins exposure),Aedes aegypti; [4],78%
same,% bite inhibition,Aedes aegypti; [4],95%
same,% landing inhibition,Aedes aegypti; [4],80%
same,% KD (15 mins),Aedes aegypti; [5],31%
same,24 hour % mortality (15 mins exposure),Aedes aegypti; [5],94%
same,% bite inhibition,Aedes aegypti; [5],99%
same,% landing inhibition,Aedes aegypti; [5],87%
same,% KD (15 mins),Aedes aegypti; [6],30%
same,24 hour % mortality (15 mins exposure),Aedes aegypti; [6],96%
same,% bite inhibition,Aedes aegypti; [6],100%
same,% landing inhibition,Aedes aegypti; [6],92%
"CC(C)=C[C@@H]1[C@@H](C(=O)OCc2coc(Cc3ccccc3)c2)C1(C)C [Bioresmethrin, bioresmethrin]",Vapour Pressure,[1]; 25° C.,18.6 mPa
same,% KD (15 mins),Aedes aegypti; [7],41%
same,24 hour % mortality (15 mins exposure),Aedes aegypti; [7],23%
same,% bite inhibition,Aedes aegypti; [7],99%
same,% landing inhibition,Aedes aegypti; [7],96%
same,vapour pressure relative to bifenthrin,[2],775 times
"CC1(C)C(C=C(Cl)Cl)C1C(=O)OC(C#N)c1cccc(Oc2ccccc2)c1 (stereo not drawn) [Cypermethrin, cypermethrin]",Vapour Pressure,[1]; 20° C.,0.0002 mPa
same,% KD (15 mins),Aedes aegypti; [8],10%
same,24 hour % mortality (15 mins exposure),Aedes aegypti; [8],56%
same,% bite inhibition,Aedes aegypti; [8],73%
same,% landing inhibition,Aedes aegypti; [8],70%
"CC1(C)[C@H](C(=O)O[C@H](C#N)c2cccc(Oc3ccccc3)c2)[C@@H]1C=C(Br)Br [Deltamethrin, deltamethrin]",Vapour Pressure,[1]; 25° C.,0.0000124 mPa
same,% KD (15 mins),Aedes aegypti; [9],0%
same,24 hour % mortality (15 mins exposure),Aedes aegypti; [9],12%
same,% bite inhibition,Aedes aegypti; [9],57%
same,% landing inhibition,Aedes aegypti; [9],57%
"CC1(C)C(C=C(Cl)Cl)C1C(=O)OCc1cccc(Oc2ccccc2)c1 (stereo not drawn) [Permethrin, permethrin]",Vapour Pressure,[1]; 20° C.,0.0025 mPa
same,% KD (15 mins),Aedes aegypti; [10],35%
same,24 hour % mortality (15 mins exposure),Aedes aegypti; [10],55%
same,% bite inhibition,Aedes aegypti; [10],85%
same,% landing inhibition,Aedes aegypti; [10],8%
"C=CCC1=C(C)C(OC(=O)C2C(C=C(C)C)C2(C)C)CC1=O (stereo not drawn) [d-Allethrin, d-allethrin]",Vapour Pressure,[1]; 21° C.,0.16 mPa
same,24 hour % mortality (15 mins exposure),Culex quinquefasciatus; [11],2%
same,% KD (15 mins),Culex quinquefasciatus; [11],7%
same,% bite inhibition,Culex quinquefasciatus; [11],94%
same,% landing inhibition,Culex quinquefasciatus; [11],87%
same,% KD (15 mins),Aedes aegypti; [11],35%
same,24 hour % mortality (15 mins exposure),Aedes aegypti; [11],7%
same,24 hour % mortality (15 mins exposure),"Aedes aegypti; burning coil with 0.25% d-allethrin, listed as d-allethrin",no different from the untreated control
same,% bite inhibition,Aedes aegypti; [11],100%
same,% landing inhibition,Aedes aegypti; [11],98%
"CC(C)=CC1C(C(=O)OCc2cccc(Oc3ccccc3)c2)C1(C)C (stereo not drawn) [d-Phenothrin, d-phenothrin]",Vapour Pressure,[1]; 21.4° C.,0.019 mPa
same,% KD (15 mins),Aedes aegypti; [12],39%
same,24 hour % mortality (15 mins exposure),Aedes aegypti; [12],24%
same,% bite inhibition,Aedes aegypti; [12],100%
same,% landing inhibition,Aedes aegypti; [12],98%
